From paper PMC1968247 (British Journal of Cancer, 1993) come the findings set out here.

Like-named read-outs stand apart in the source and are kept apart here.

Series [1] deals with MAC 13 tumours. The series can be described thus: Anti-tumour activity against MAC 13 (tumour weight). The format is in vivo, NMRI mice. To be noted: 30 mg kg-1 ip. As to the method:
(§1) Br. J. Cancer (1993), 67, 441 446 t? […] Bibby Clinical Oncology Unit, University of Bradford, West Yorkshire, BD7 JDP, UK. […] In vivo anti-tumour activity was examined against three transplantable adenocarcinomas of the mouse colon and in vivo bone marrow toxicity was assessed using a spleen colony forming unit assay. The pharmacokinetic behaviour of the drug in vivo and drug stability in vitro was analysed by gas chromatography with electron capture detection. […] Clinical responses to cytotoxic agents have been largely restricted to the haematological malignancies while the majority of human solid tumours have remained refractory to chemotherapy (Marsoni et al., 1987). […] However, their clinical usefulness has been limited by non-selective host toxicity, particularly myelosuppres- sion. The chloroethylnitrosoureas decompose spontaneously in aqueous solution to generate reactive intermediates that are capable of alkylating and carbamoylating nucleophilic targets (Cheng et al., 1972). Alkylation reactions consist of chloroethylations and hydroxyethylations of DNA (Tong et al., 1982). Chloroethylation of 06-guanine with subsequent cross-link formation is considered to be the most important cytotoxic reaction (Lown et al., 1978) while hydroxyethyla- tion reactions are thought to be responsible for their mutagenic and carcinogenic effects (Pelfrene et al., 1976; Swenson et al., 1979). […] In the search for other types of compound that would chloroethylate DNA, a series of 2-haloethylsulphonates was synthesised (Shealy et al., 1983). […] Recently, the NCI has introduced a new disease-orientated screening programme based on the assessment of the in vitro cytotoxicity of a panel of cell lines representing the common clinical forms of human cancers using a colorimetric assay (Boyd, 1989). […] One reason for this discrepancy is that the in vitro tests ignore the potential role played by the pharmacokinetic behaviour and bioavailability of a drug in determining tumour responses in vivo. […] It has been used extensively as part of the pre-clinical evaluation of new anti-cancer agents within the Screening and Pharmacology Group of the EORTC (Bibby et al., 1988b). The feasibility of performing minimal toxicity studies in conjunction with anti-tumour studies has been described (Bibby et al., 1988b). […] Correspondence: A.M. Matthew. Received 6 December 1991; and in revised form 13 October 1992. Br. J. Cancer (1993), 67, 441-446 '?" Macmillan Press Ltd., 1993 442 A.M. MATIHEW et al. ethylating agents with improved therapeutic indices. The assessment of stem cell survival has been recommended to study irreversible cytotoxic bone marrow injury (Schofield, 1986) and this can be performed readily in mice using a spleen colony forming unit assay. […] In vitro activity was assessed against a panel of established murine and human tumour cell lines while in vivo anti-tumour responses were evaluated against an ascitic tumour, MAC 15A, and two solid subcutaneous (sc) tumours, MAC 13 and MAC 26. MAC 13 is relatively nitrosourea-sensitive due to a low level of the repair enzyme 06-alkylguanine-DNA alkyltransferase while MAC 26 is relatively nitrosourea-resistant due to a high repair enzyme level (Lunn et al., 1989). In vivo bone marrow toxicity and pharmacokinetic studies and in vitro drug stability studies were performed in conjunction with the anti-tumour studies. […] Chlorozotocin was dissolved in 10% dimethylsulphoxide (DMSO)/arachis oil. Drug solutions were prepared at an appropriate concentration for the desired in vivo dose to be administered in 0.1 ml per 10 g body weight by intra- peritoneal (ip) or intravenous (iv) injection and for the desired final concentration in vitro to be achieved upon a 1 in 10 dilution. […] Chemosensitivity testing In vitro chemosensitivity was assessed using a modified micro-tetrazolium (MTT) assay (Twenty- man & Luscombe, 1987).

A short description of series [2]: Maximum tolerated dose, full dose range to the point of toxicity. To be noted: ip, mice. As to the method: Br. J. Cancer (1993), 67, 441 446 t? […] Bibby Clinical Oncology Unit, University of Bradford, West Yorkshire, BD7 JDP, UK. […] In vivo anti-tumour activity was examined against three transplantable adenocarcinomas of the mouse colon and in vivo bone marrow toxicity was assessed using a spleen colony forming unit assay. The pharmacokinetic behaviour of the drug in vivo and drug stability in vitro was analysed by gas chromatography with electron capture detection. […] Clinical responses to cytotoxic agents have been largely restricted to the haematological malignancies while the majority of human solid tumours have remained refractory to chemotherapy (Marsoni et al., 1987). […] However, their clinical usefulness has been limited by non-selective host toxicity, particularly myelosuppres- sion. The chloroethylnitrosoureas decompose spontaneously in aqueous solution to generate reactive intermediates that are capable of alkylating and carbamoylating nucleophilic targets (Cheng et al., 1972). Alkylation reactions consist of chloroethylations and hydroxyethylations of DNA (Tong et al., 1982). Chloroethylation of 06-guanine with subsequent cross-link formation is considered to be the most important cytotoxic reaction (Lown et al., 1978) while hydroxyethyla- tion reactions are thought to be responsible for their mutagenic and carcinogenic effects (Pelfrene et al., 1976; Swenson et al., 1979). […] The assessment of stem cell survival has been recommended to study irreversible cytotoxic bone marrow injury (Schofield, 1986) and this can be performed readily in mice using a spleen colony forming unit assay. […] In vitro activity was assessed against a panel of established murine and human tumour cell lines while in vivo anti-tumour responses were evaluated against an ascitic tumour, MAC 15A, and two solid subcutaneous (sc) tumours, MAC 13 and MAC 26. […] Chemosensitivity testing In vitro chemosensitivity was assessed using a modified micro-tetrazolium (MTT) assay (Twenty- man & Luscombe, 1987).

Series [3] relates to MAC 26 tumours. To be noted: for Survivors: MAC 26 bearers. As to the method:
as §1

Series [4] relates to bone marrow. To be noted: 24 h. As to the method: as §1
Series [5] relates to MAC 15A ascites tumour. Briefly: Anti-tumour activity against MAC 15A (median survival time). The note with it: 30 mg kg-1 ip. The format is in vivo, NMRI mice. As to the method:
as §1

Turning to `CN(C)S(=O)(=O)CCNC(=O)N(CCCl)N=O` [TCNU, 1-(2-chloroethyl)-3-[2-(dimethylaminosulphonyl)ethyl]-I -nitro-sourea], in series [1], the “% Tumour weight inhibition” value turned out to be 91.3%. In series [2], this compound registered a Maximum tolerated dose of 30 mg kg-'. The compound also returned a Tumour growth delay in series [3] (MAC 26, 30 mg kg-1 ip) of 11.6 days. The Survivors in series [3] (30 mg kg-1 ip) is reported as 10/10; in series [3] (50 mg kg-1 ip) it was 0/5. In addition, the Survival fraction in series [4] (5 mg kg-1 ip) is reported as 0.61; in series [4] (10 mg kg-1 ip), 0.20; in series [4] (30 mg kg-1 ip), 0. In addition, the No. colonies observed in series [4] (30 mg kg-1 ip, mean, SD, n = 6) is on record as 0. Moreover, the T/C% in series [5] amounted to 200%.
